In paper PMC5100981 (Antiviral research, 2016):
Like-named read-outs stand apart in the source and are kept apart here.

Assays:
in vitro [1] = details: human
[2] = test system: Enterovirus D68 (Fermon strain); test: CPE inhibition assay; format: cell-based; details: for EC50: Enterovirus D, RD, read-out: EC50, 50% effective (virus-inhibitory) concentration
[3] = test system: Rhinovirus 87 (F02-3607 Corn strain); test: CPE inhibition assay; format: cell-based
[4] = test system: EV-D68 (US/KY/14-18953 strain); test: Virus yield reduction; format: cell-based, Enterovirus D68
[5] = test system: Enterovirus 71 (Tainan/4643/98 strain); test: CPE inhibition assay; format: cell-based
EV-D68/US/KY/14-18953 [6] = test: CPE inhibition; format: cell-based, Enterovirus D68; details: for SI, selectivity index (CC50 / EC50): A549 cells; for EC50: Enterovirus D, EVD68, A549, read-out: EC50, 50% effective concentration
EV-D68/US/KY/14-18953 [7] = test: CPE inhibition; format: cell-based, Enterovirus D68; details: for EC50: Enterovirus D, EVD68, HeLa Ohio1, read-out: EC50, 50% effective concentration; for SI, selectivity index (CC50 / EC50): HeLa-Ohio-1 cells
in vitro [8] = details: human, uninfected A549 lung carcinoma cells, stationary monolayers
[9] = test system: RD human rhabdomyosarcoma cells
EV-71 = details: ref Zhang et al., 2013; cited from earlier work
[10] = Enterovirus D68/Fermon, RD cells
[11] = EV-D68 US/KY/14-18953, RD cells

Row | SMILES | CC50 (in vitro [1]) | SI, selectivity index (CC50 / EC50) [2] | EC50 [2] | SI, selectivity index (CC50 / EC50) [3] | SI, selectivity index (CC50 [from Table 1] / EC90) [4] | SI, selectivity index (CC50 / EC50) [5] | SI, selectivity index (CC50 / EC50) (EV-D68/US/KY/14-18953 [6]) | EC50 (EV-D68/US/KY/14-18953 [6]) | CC50 (in vitro [1]; uninfected RD rhabdomyosarcoma cells, stationary monolayers) | EC50 (EV-D68/US/KY/14-18953 [7]) | SI, selectivity index (CC50 / EC50) (EV-D68/US/KY/14-18953 [7]) | CC50 (in vitro [8]) | SI, selectivity index (CC50 / EC50) ([5]; Enterovirus 71, RD cells) | SI, selectivity index (CC50 / EC50) [2, 10] | SI, selectivity index (CC50 / EC50) ([3]; Rhinovirus 87, RD cells) | SI, selectivity index (CC50 [from Table 1] / EC90) [4, 11] | Overall activity against EV-D68 virus (in words) ([4]; CPE inhibited at much lower concentration than virus yield) | CC50 [9] | Treatment of EV-71 infection in suckling mice (mortality and clinical scores) (EV-71)
1 | Cc1cc(CCCOc2c(C)cc(-c3noc(C(F)(F)F)n3)cc2C)on1 [Pleconaril, pleconaril] | 11.3 ± 6.3 µM | 87 | 0.13 ± 0.09 µM | 7 | 54 |  |  |  |  |  |  |  |  |  |  |  |  |  | 
2 | Nc1cc2nc[nH]c2c(=O)[nH]1 [3-Deazaguanine, 3-deazaguanine] | 360 ± 227 µM | 54 | 6.7 ± 1.6 µM | 45 | 45 | 5 |  |  |  |  |  |  |  |  |  |  |  |  | 
3 | CC(C)S(=O)(=O)n1c(N)nc2ccc(/C(=N/O)c3ccccc3)cc21 [Enviroxime, enviroxime] |  |  | 0.27 ± 0.19 µM |  |  |  | 89 | 0.77 ± 1.1 µM | 66 ± 28 µM | 1.7 ± 0.72 µM | 45 | 68 ± 13 µM | 92 | 352 | 500 | 156 |  |  | 
4 | CCOC(=O)c1ccc(OCCC2CCN(c3ccc(C)nn3)CC2)cc1 [Pirodavir, pirodavir] |  |  | 7 ± 3 µM |  |  |  | 13 | 11 ± 7.2 µM |  | 6.1 ± 2.8 µM | 5.3 |  | 24 | 3 |  | <1 | poorly effective | 32 ± 18 µM | 
5 | NC(=O)c1ncn([C@@H]2O[C@H](CO)[C@@H](O)[C@H]2O)n1 [Ribavirin, ribavirin] | 1100 ± 450 µM |  | 147 ± 74 µM |  |  |  |  |  |  |  |  |  |  |  |  |  |  |  | 
6 | CCOC(=O)/C=C/[C@H](C[C@@H]1CCNC1=O)NC(=O)[C@@H](CC(=O)[C@@H](NC(=O)c1cc(C)on1)C(C)C)Cc1ccc(F)cc1 [Rupintrivir, rupintrivir] | 134 ± 21 µM | 60910 | 0.0022 µM | 25280 | 33,500 | 7450 |  |  |  |  |  |  |  |  |  |  |  |  | effective
